Measurements: article doi:10.1101/208439v1 (biorxiv, 2017)
Where two headings read alike, the source gives them in different places. Blank lines part the entries; values can stand above or below the molecule they belong to.

Experiments:
NSD2 SET domain = biological target: T1, NSD2 SET domain (Homo sapiens, UniProt O96028); test: biochemical; set-up: Surface plasmon resonance binding to NSD2 SET domain; details: binder
T1 construct: SET domain, residues 934-1241, N-terminal His tag, E. coli
T1 sequence (O96028 934-1241): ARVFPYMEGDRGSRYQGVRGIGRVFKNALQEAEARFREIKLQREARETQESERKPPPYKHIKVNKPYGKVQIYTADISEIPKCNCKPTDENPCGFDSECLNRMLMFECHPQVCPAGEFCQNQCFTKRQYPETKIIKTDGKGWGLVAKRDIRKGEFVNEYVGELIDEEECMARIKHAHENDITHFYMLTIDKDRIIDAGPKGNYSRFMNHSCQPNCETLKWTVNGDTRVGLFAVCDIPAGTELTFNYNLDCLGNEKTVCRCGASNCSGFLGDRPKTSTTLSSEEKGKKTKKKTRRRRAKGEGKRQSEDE
Experimental: To support an on-target mechanism of action for the five inhibitors, surface plasmon resonance (SPR) was used to determine whether each inhibitor interacts with the catalytic SET domain of NSD2. […] Chaetocin bound the SET domain with an apparent dissociation constant of 20 nM. Additionally, the data indicated super-stoichiometric binding, which might be due to a binding ratio higher than 1:1 that is consistent with chaetocin’s two disulfide moieties forming adducts with the NSD2 protein, or compound aggregation (data not shown) ([56]).

PRMT1 = biological target: T2, PRMT1 (Homo sapiens, UniProt Q99873); test: HotSpot [3H]SAM filter-binding methyltransferase assay; type: biochemical
T2 construct: residues 2-371, N-terminal GST fusion, E. coli

MLL2 Complex = MLL2 Complex (Homo sapiens, UniProt O14686); test: as above; type: biochemical; set-up: gene KMT2D; complex assembled as MLL1; MLL2 here is KMT2D (NM_003482), His tag, E. coli; with WD repeat-containing protein 5; Set1/Ash2 histone methyltransferase complex subunit ASH2; Protein dpy-30 homolog
DOT1L = biological target: T3, DOT1L (Homo sapiens, UniProt Q8TEK3); test: as above; type: biochemical
T3 construct: residues 1-416, N-terminal GST fusion, E. coli

PRMT8 = biological target: T4, PRMT8 (Homo sapiens, UniProt Q9NR22); test: as above; type: biochemical
T4 construct: residues 61-394, N- and C-terminal His tags, E. coli

DNMT3b = biological target: T5, DNMT3b (Homo sapiens, UniProt Q9UBC3); test: as above; type: biochemical
T5 construct: residues 2-853, N-terminal GST fusion, insect cell/baculovirus

SMYD1 = biological target: T6, SMYD1 (Homo sapiens, UniProt Q8NB12); test: biochemical
T6 sequence (Q8NB12 1-490): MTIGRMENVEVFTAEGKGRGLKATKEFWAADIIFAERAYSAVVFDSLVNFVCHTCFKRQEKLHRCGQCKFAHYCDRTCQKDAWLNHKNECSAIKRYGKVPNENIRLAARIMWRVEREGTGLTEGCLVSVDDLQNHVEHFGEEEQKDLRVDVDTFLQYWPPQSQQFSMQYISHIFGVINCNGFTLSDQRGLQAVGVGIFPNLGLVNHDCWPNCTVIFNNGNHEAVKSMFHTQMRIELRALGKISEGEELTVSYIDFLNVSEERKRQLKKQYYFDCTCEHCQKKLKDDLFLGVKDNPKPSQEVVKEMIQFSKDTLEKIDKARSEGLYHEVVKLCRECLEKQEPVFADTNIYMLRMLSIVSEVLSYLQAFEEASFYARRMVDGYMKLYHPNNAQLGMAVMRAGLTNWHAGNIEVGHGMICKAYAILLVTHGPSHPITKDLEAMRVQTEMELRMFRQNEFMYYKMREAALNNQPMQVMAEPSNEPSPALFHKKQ

MLL3 Complex = MLL3 Complex (Homo sapiens, UniProt Q8NEZ4); test: HotSpot [3H]SAM filter-binding methyltransferase assay; type: biochemical; set-up: gene KMT2C; complex assembled as MLL1; MLL3 His tag, E. coli; with WD repeat-containing protein 5; Set1/Ash2 histone methyltransferase complex subunit ASH2; Protein dpy-30 homolog; details: core histone, […] SAM, pH […] MgCl2, […] DTT, […] °C, single experiment
[1] = histone H4, […] SAM, pH […] MgCl2, […] DTT, […] °C, single experiment
[2] = nucleosomes, […] SAM, pH […] MgCl2, […] DTT, […] °C, single experiment

T3 sequence (Q8TEK3 1-416): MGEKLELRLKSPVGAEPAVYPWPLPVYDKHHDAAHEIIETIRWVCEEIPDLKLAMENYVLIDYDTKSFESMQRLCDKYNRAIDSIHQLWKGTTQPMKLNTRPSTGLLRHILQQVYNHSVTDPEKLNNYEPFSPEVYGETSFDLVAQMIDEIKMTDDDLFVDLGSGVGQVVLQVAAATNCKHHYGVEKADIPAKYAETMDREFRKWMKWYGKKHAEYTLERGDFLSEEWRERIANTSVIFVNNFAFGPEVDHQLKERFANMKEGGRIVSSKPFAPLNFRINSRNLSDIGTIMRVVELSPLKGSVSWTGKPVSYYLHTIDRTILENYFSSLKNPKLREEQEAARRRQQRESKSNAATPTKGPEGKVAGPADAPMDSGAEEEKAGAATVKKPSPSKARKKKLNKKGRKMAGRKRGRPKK
T4 sequence (Q9NR22 61-394): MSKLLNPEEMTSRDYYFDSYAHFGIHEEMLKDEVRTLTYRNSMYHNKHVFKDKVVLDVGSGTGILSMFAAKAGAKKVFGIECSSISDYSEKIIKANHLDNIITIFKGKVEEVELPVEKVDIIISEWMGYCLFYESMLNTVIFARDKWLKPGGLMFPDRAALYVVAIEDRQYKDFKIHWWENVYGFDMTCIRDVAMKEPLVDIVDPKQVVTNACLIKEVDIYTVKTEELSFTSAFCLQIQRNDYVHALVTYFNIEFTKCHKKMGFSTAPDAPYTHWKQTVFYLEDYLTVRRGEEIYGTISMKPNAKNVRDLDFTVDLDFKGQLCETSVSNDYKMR
Chain of MLL2 Complex (O14686 5319-5537): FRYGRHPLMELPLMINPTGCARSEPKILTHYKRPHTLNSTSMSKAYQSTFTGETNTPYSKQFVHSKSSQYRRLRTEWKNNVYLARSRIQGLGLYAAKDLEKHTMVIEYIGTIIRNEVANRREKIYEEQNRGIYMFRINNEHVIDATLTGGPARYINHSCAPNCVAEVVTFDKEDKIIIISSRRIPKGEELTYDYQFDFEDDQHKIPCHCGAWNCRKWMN
Chain of MLL2 Complex (Q15291 whole entry, further chain): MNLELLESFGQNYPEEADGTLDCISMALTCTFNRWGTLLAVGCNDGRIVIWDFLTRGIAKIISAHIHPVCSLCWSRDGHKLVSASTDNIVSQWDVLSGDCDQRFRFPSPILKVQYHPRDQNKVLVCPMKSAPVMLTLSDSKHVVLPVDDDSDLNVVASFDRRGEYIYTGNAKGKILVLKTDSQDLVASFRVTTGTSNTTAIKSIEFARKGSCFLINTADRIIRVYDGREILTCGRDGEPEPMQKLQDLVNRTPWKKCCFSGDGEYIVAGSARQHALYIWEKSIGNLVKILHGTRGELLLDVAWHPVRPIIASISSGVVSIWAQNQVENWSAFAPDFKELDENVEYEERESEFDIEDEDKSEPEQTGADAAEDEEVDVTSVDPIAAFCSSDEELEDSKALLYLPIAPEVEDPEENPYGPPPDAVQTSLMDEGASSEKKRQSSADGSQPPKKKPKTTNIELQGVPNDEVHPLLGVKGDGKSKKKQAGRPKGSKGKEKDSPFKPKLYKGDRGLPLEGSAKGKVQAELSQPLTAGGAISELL
Chain of MLL2 Complex (Q9UBL3 96-628, further chain): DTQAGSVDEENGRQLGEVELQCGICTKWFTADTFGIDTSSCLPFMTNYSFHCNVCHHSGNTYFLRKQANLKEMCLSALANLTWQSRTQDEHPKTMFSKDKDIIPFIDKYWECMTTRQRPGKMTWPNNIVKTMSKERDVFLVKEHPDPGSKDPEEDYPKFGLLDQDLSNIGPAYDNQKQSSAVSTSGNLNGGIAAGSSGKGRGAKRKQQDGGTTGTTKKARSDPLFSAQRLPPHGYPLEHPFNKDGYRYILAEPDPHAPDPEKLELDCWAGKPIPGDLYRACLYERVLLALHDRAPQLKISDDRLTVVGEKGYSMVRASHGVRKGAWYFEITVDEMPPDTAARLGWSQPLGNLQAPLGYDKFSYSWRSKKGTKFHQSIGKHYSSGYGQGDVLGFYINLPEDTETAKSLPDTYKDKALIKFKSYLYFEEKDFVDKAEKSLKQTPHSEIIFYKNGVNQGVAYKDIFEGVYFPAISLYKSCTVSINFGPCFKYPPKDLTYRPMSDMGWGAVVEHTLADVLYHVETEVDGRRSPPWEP
Chain of MLL2 Complex (Q9C005 whole entry, further chain): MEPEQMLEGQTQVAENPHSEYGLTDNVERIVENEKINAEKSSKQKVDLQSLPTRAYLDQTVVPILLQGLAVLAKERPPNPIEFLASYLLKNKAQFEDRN
T2 sequence (Q99873 2-353 isoform Q99873-3): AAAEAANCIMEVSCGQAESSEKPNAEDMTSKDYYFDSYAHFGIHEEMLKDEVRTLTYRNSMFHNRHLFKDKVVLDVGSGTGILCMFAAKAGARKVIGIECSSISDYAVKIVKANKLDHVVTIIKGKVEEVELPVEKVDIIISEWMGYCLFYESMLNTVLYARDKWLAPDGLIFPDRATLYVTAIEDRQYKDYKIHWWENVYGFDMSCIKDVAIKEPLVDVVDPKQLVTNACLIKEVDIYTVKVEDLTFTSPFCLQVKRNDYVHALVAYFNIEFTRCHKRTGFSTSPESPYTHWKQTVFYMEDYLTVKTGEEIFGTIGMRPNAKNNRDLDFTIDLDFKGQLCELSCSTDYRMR
Chain of MLL3 Complex (Q9C005 whole entry): as the sequence (Q9C005 whole entry, further chain) above
Chain of MLL3 Complex (Q8NEZ4 4689-4911): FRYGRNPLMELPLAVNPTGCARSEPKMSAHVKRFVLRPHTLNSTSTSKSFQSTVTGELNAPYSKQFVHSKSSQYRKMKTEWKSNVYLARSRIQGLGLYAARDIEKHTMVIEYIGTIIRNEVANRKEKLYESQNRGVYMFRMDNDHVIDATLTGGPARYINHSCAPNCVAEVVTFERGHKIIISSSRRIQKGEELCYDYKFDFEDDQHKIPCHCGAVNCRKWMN
Chain of MLL3 Complex (Q9UBL3 96-628, further chain): as the sequence (Q9UBL3 96-628, further chain) above
Chain of MLL3 Complex (Q15291 whole entry, further chain): as the sequence (Q15291 whole entry, further chain) above

koff (NSD2 SET domain): 0.0364 s⁻¹
kon (NSD2 SET domain): 4390 M⁻¹ s⁻¹
IC50 (PRMT1): 83 µM
IC50 (MLL2 Complex): 4.6 µM
IC50 (DOT1L): 2 µM
IC50 (PRMT8): 34 µM
IC50 (DNMT3b): > 100 µM
Compound: CC1(C)CCC(CN2CCN(c3ccc(C(=O)NS(=O)(=O)c4ccc(NCC5CCOCC5)c([N+](=O)[O-])c4)c(Oc4cnc5[nH]ccc5c4)c3)CC2)=C(c2ccc(Cl)cc2)C1 [ABT-199]

Kd (NSD2 SET domain): 0.37 µM
IC50 (SMYD1; read-out: DA3003-1 IC50, inhibitor): 1 µM
Compound: O=C1C(Cl)=C(NCCN2CCOCC2)C(=O)c2ncccc21 [DA3003-1]

IC50 (MLL3 Complex): 63 µM
IC50 (PRMT1; [1]): 68 µM
IC50 (MLL2 Complex; [2]): 18 µM
IC50 (DOT1L; [2]): 8.2 µM
IC50 (PRMT8; [1]): 71 µM
IC50 (DNMT3b; lambda DNA, […] SAM, pH […] EDTA, […] DTT, […] °C, single experiment): 24 µM
IC50 (SMYD1): 21 µM
Compound: COc1cccc(-n2nc(C(=O)O)cc2-c2ccc(C3CCCCC3)c(Cl)c2)c1 [TC LPA5 4]
